Here are results for 27 molecules from US5328921A, “Aryl pyridinium compounds which are useful in treating shock” (American Cyanamid Company, priority 1992, dated 1994).

Test [1] deals with PAF induced lethality in mice. Kind of test: PAF induced lethality in mice. The test is classed as in vivo. The settings on record: 0.5 mg/kg IP 1/2 hour before lethal PAF I.V. challenge, alive after 2 hours, control (saline) 10; for responders at 0.5 mg/kg: Mus musculus, read-out: % Survival. The procedure: PAF given I.V. to mice causes an immediate hypotensive shock leading to death in 1 hour or less. Compounds are given intraperitoneally at 1/2 hour prior to the PAF challenge. Animals alive after 2 hours are counted and the activity of test compounds expressed as survival corrected for any control (saline treated) animals which survived the PAF challenge.

In a further test the target is T1, PAF receptor (Oryctolagus cuniculus, UniProt G1TEI7).
T1 construct: centrifuged at 800 rpm for 10-15 minutes at room temperature to recover the platelet rich plasma (PRP); endogenous in cells; host or cells: rabbit platelets (platelet rich plasma from citrated blood of male New Zealand White rabbits)
T1 sequence (G1TEI7 1-342): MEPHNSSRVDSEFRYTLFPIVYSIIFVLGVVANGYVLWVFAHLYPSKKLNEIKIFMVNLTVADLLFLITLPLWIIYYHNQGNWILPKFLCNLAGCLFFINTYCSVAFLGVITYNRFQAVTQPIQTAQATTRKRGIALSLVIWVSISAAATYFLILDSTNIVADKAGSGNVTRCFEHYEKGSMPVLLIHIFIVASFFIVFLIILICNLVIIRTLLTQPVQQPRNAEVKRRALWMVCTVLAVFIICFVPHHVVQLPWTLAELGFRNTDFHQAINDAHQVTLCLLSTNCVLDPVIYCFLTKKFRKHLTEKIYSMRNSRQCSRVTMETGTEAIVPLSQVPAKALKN
The test is described as follows: In vitro PAF antagonism: inhibition of PAF induced platelet aggregation in rabbit platelet rich plasma. Type of test: cell-based, rabbit (male New Zealand White). To be noted: rabbit PRP; for % INH (% of inhibition of PAF induced platelet aggregation): Dose 1.00E-05 M. The procedure: Test compounds are evaluated as PAF receptor antagonists in vitro by measuring inhibition of PAF (platelet activating factor) induced platelet aggregation. Platelet aggregation is measured by a modification of the method described in A. Wissnet, et. al., J. Med. Chem., 27 1174, 1984.
Approximately 120-240 ml of blood is collected by cardiac puncture from unanesthetized male New Zealand White rabbits (Whaley's Summit View Farms, Belvedere, N.J.) with the use of 3.2% sodium citrate anticoagulant (1 part of citrate/10 parts of blood). All syringes and pipers are plastic. The blood is gently mixed and immediately centrifuged at 800 rpm for 10-15 minutes at room temperature to recover the platelet rich plasma (PRP). Platelet poor plasma (PPP) is prepared by centrifuging PRP at 2800 rpm for 10 minutes at room temperature.
Dilutions (113000) of PRP in Isoton, diluent are made and platelet counts are determined on a Coulter Thrombocounter which is standardized with platelet reference standards (Interscience Platelet Control, Portland, Oreg.). PRP platelet counts are adJusted to approximately 400,000-500,000 platelets/11 by the addition of PPP.
L-PAF (Platelet Activating Factor) is obtained from Calbiochem. A stock solution of 1-2 E-3M is prepared in 10% ethanol in water or 100% methanol and serial working dilutions are made using saline. E-3M stock solutions of test compounds are prepared in 100% methanol and serially diluted in PBS. Sonication of samples before testing in biological screens assists in the solubility of compounds in the liquid medium. All solutions are made up in plastic tubes, stored on ice and protected from heat and light. Solutions are prepared fresh or frozen at -20° C. and used within 48 hours.
Incubation mixtures consisted of 400 11 PRP, 50 11 of saline diluent or test compound and 50 11 of PAF agohist. More specifically, 40011 of PRP is stabilized in a cuvette for 1-2 minutes at 37° C. in the aggregometer to achieve a stable baseline, then 50 11 of saline or test compound is added and incubated for 5 minutes before addition of the challenge concentration of PAF. A submaximal concentration is determined from the dose response curve for PAF for that experiment. In general, the challenge concentration is 5E-8 or 1E-7M. Aggregation is monitored for 5 minutes. Samples containing test compound or diluent are run simultaneously for comparison. Test compounds are initially evaluated at a screening concentration of 1E-SM.
The recording equipment consists of a dual channel Chronolog aggregometer connected to a dual channel 10MV full scale deflection Omniscribe chart recorder (Houston Instruments). The chart recorder is calibrated daily with the use of a suspension of Bio-Rad latex beads (S-X 12 400 mesh) which has a density slightly greater than rabbit PRP. The bead suspension is used to set the 0% light transmission mark and clear water is used to set the 100% light transmission mark. These limits defined a full scale deflection. The aggregation traces are analyzed by a digitizing method (C. Kohler and B. Zoltan, J. Pharm. Methods, 12, 113, 1984) with x, y coordinate data stored in a computer file. A suitable program computes parameters of interest such as the magnitude of aggregation.

Values joined by “and” are separate entries in the source; they are usually repeats but may differ in a detail not shown here. Equal entries are not always repeated. Structures can show the parent of a compound that is named as a salt.

With `CCCCCCCCCCCCCCOc1ccc(N(Cc2ccc[n+](C)c2)C(C)=O)cc1` [3-[[Acetyl[4-(tetradecyloxy)phenyl]amino]methyl]-1-methylpyridinium iodide], in test [1], the responders at 0.5 mg/kg came to 7%. Broadly, the IC50 is the concentration that inhibits the measured activity by half. The molecule `CCCCCCCCCCCCCCOc1ccc(CN(Cc2cccc[n+]2CC)C(C)=O)cc1` [2-[[Acetyl[[4-(tetradecyloxy)phenyl]methyl]amino]-methyl]-1-ethylpyridiniumiodide] showed an IC50 at PAF receptor (PAF challenge 1.00E-07 M) of 13000 nM. Turning to `CCCCCCCCCCCCCCOc1ccc(C(=O)N(Cc2cccc[n+]2C)C(C)=O)cc1C(C)(C)C` [2-[[Acetyl[3-(1,1-dimethylethyl)-4-(tetradecyloxy)-benzoyl]amino]methyl]-1-methylpyridinium iodide], the half-inhibitory concentration (IC50) on PAF receptor (PAF challenge 1.00E-07 M) is 14.1 nM and 36 nM; against PAF receptor (PAF challenge 5.00E-08 M), 21.5 nM. Besides, the responders at 0.5 mg/kg in test [1] was found to be 60%. Consider `CCCCCCCCCCCCCCOc1ccc(C(=O)N(Cc2cccc[n+]2Cc2ccccc2)C(C)=O)cc1` [2-[[Acetyl[4-(tetradecyloxy)benzoyl]amino]methyl]-1-(phenylmethyl)pyridinium bromide], for which inhibition against PAF receptor (PAF challenge 5.00E-08 M) was half-maximal at 300000 nM (IC50). Further, the responders at 0.5 mg/kg in test [1] is 0%.

Take `CCCCCCCCCCCCCCCCOc1ccc(OCC(=O)N(Cc2cccc[n+]2C)C(C)=O)cc1` [2-[[Acetyl[[4-(hexadecyloxy)phenoxy]acetyl]amino]-methyl]-1-methylpyridinium iodide]: half-maximal inhibition against PAF receptor (PAF challenge 5.00E-08 M) (IC50) was put at 280000 nM. The same measure, in the same setting: with `CCCCCCCCCCCCCCCCOc1ccc(OCC(=O)NCc2cccc[n+]2CC)cc1` [1-Ethyl-2-[[[[4-(hexadecyloxy)phenoxy]acetyl]amino]-methyl]pyridinium iodide] the figure was 7200 nM and 5600 nM. For the molecule `CCCCCCCCCCCCCCOc1ccc(COC(=O)N(Cc2cccc[n+]2C)C(C)=O)cc1` [2-[[Acetyl[[[4-(tetradecyloxyphenyl]methoxy]-carbonyl]amino]methyl]-1-methylpyridinium iodide], the responders at 0.5 mg/kg in test [1] is 40%.

`CCCCCCCCCCCCCCOc1ccc(C(=O)N(Cc2cccc[n+]2C)C(C)=O)cc1OC` [2-[[Acetyl[3-methoxy-4-(tetradecyloxy)benzoyl]amino]-methyl]-1-methylpyridinium iodide]: the IC50 on PAF receptor (PAF challenge 5.00E-08 M) worked out at 63.6 nM. In test [1], the responders at 0.5 mg/kg was determined as 43%. On to `CCCCCCCCCCCCCCOc1ccc(CC(=O)NCCc2cccc[n+]2C)cc1` [1-Methyl-2-[2-[[[4-(tetradecyloxy)phenyl]acetyl]-amino]ethyl]pyridinium iodide], for which the IC50 on PAF receptor (PAF challenge 5.00E-08 M) was 15000 nM. `CCCCCCCCCCCCCCOc1ccc(C(=O)N(Cc2cccc[n+]2C)C(C)=O)cc1.[I-]` [2-[[Acetyl[4-(tetradecyloxy)benzoyl]amino]methyl]-1-methylpyridinium iodide]: on PAF receptor (PAF challenge 5.00E-08 M), the “% INH (% of inhibition of PAF induced platelet aggregation)” value came out at 0%; the IC50 is 860 nM and 700 nM and 960 nM and 1300 nM. For the same molecule, the responders at 0.5 mg/kg in test [1] came to 27%. Turning to `CCCCCCCCCCCCCCOc1ccc(CN(C(=O)c2ccc[n+](C)c2)c2ccccc2)cc1` [1-Methyl-3-[[phenyl[[4-(tetradecyloxy)phenyl]methyl]-amino]carbonyl]pyridinium iodide], in test [1], the responders at 0.5 mg/kg amounted to 69%.

Turning to `CCCCCCCCCCCCCCOc1ccc(C(=O)N(Cc2ccc[n+](C)c2)C(C)=O)cc1` [3-[[Acetyl[4-(tetradecyloxy)benzoyl]amino]methyl]-1-methylpyridinium iodide], the IC50 at PAF receptor (PAF challenge 5.00E-08 M) was 6800 nM. Take `CCCCCCCCCCCCCCOc1ccc(CN(C(=O)c2ccc[n+](CCC)c2)c2ccccc2)cc1` [3-[[Phenyl[[4-(tetradecyloxy)phenyl]methyl]amino]-carbonyl]-1-propylpyridinium iodide]: in test [1], the responders at 0.5 mg/kg was 64%. The same measure, in the same setting: with `CCCCCCCCCCCCCCOc1ccc(CN(Cc2cccc[n+]2C)S(C)(=O)=O)cc1` [1-Methyl-2-[[(methylsulfonyl)[[4-(tetradecyloxy)-phenyl]methyl]amino]methyl]pyridinium iodide] the figure was 55%; with `CCCCCCCCCCCCCCOc1ccc(C(=O)N(Cc2cccc[n+]2C)S(C)(=O)=O)cc1` [1-Methyl-2-[[(methylsulfonyl)[4-(tetradecyloxy)-benzoyl]amino]methyl]pyridinium salt with trifluoromethanesulfonic acid (1:1)], 88%.

`CCCCCCCCCCCCCCOc1cc(C(=O)N(Cc2cccc[n+]2C)C(C)=O)ccc1OC` [2-[[Acetyl[4-methoxy-3-(tetradecyloxy)benzoyl]-amino]methyl]-1-methylpyridinium iodide]: inhibition on PAF receptor (PAF challenge 5.00E-08 M) was half-maximal at 160000 nM (IC50). In addition, the responders at 0.5 mg/kg in test [1] is 21%. Take `CCCCCCCCCCCCCCCCOc1ccc(OCC(=O)NCCc2cccc[n+]2CC)cc1` [1-Ethyl-2-[2-[[[4-(hexadecyloxy)phenoxy]acetyl]-amino]ethyl]pyridinium iodide]: the half-maximal inhibitory concentration (IC50) at PAF receptor (PAF challenge 1.00E-07 M) is 4640 nM; at PAF receptor (PAF challenge 5.00E-08 M), 2700 nM and 3200 nM. With `CCCCCCCCCCCCCCOc1ccc(C(=O)N(Cc2cccc[n+]2CC)C(C)=O)cc1OC.[I-]` [2-[[Acetyl[3-methoxy-4-(tetradecyloxy)benzoyl]amino]-methyl]-1-ethylpyridinium iodide], at PAF receptor (PAF challenge 5.00E-08 M), the “% INH (% of inhibition of PAF induced platelet aggregation)” value is recorded as 95%; the IC50 is 70.3 nM and 240 nM. The responders at 0.5 mg/kg in test [1] was 29%. For the molecule `CCCCCCCCCCCCCCOc1ccc(CNC(=O)c2cc[n+](C)cc2)cc1` [1-Methyl-4-[[[[4-(tetradecyloxy)phenyl]methyl]amino]-carbonyl]pyridinium iodide], the IC50 against PAF receptor (PAF challenge 5.00E-08 M) was determined as 60000 nM. For `CCCCCCCCCCCCCCOc1ccc(C(=O)NCc2cccc[n+]2C)cc1OCCCCCCCCCCCCCC` [1-Methyl-2-[[[3,4-bis(tetradecyloxy)benzoyl]amino]-methyl]pyridinium iodide], in test [1], the responders at 0.5 mg/kg was determined as 0%. Take `CCCCCCCOc1ccc(C(=O)N(Cc2cccc[n+]2C)C(C)=O)cc1OCCCCCCC` [2-[[Acetyl[3,4-bis(heptyloxy)benzoyl]amino]methyl]-1-methylpyridinium iodide]: the responders at 0.5 mg/kg in test [1] was determined as 45%.

Regarding `CCCCCCCCCCCCCCOc1ccc(C(=O)N(Cc2cccc[n+]2C)C(C)=O)cc1OCCCCCCCCCCCCCC` [2-[[Acetyl[3,4-bis(tetradecyloxy)benzoyl]amino]-methyl]-1-methylpyridinium iodide], the responders at 0.5 mg/kg in test [1] was 36%.

In the case of `CCCCCCCCCCCCCCOc1ccc(CN(Cc2cc[n+](C)cc2)C(C)=O)cc1` [4-[[Acetyl[[4-(tetradecyloxy)phenyl]methyl]amino]-methyl]-1-methylpyridinium iodide], 1000 nM corresponded to half-maximal inhibition against PAF receptor (PAF challenge 5.00E-08 M) (IC50). “2-[[Acetyl[[4-(tetradecyloxy)-benzoyl]methyl]amino]methyl]-1-ethylpyridinium iodide”: in test [1], the “% Survival” value is listed as 40%. For the molecule `CCCCCCCCCCCCCCOc1ccc(C(=O)N(Cc2cccc[n+]2C)C(=O)c2ccccc2OC)cc1` [2-[[(2-Methoxybenzoyl)[4-(tetradecyloxy)]benzoyl]-amino]methyl]-1-methylpyridinium iodide], on PAF receptor (PAF challenge 5.00E-08 M), the “% INH (% of inhibition of PAF induced platelet aggregation)” value is listed as 0% and the IC50 is 1500 nM. Molecule `CCCCCCCCCCCCCCOc1ccc(C(=O)NCCc2cccc[n+]2C)cc1` [1-Methyl-2-[2-[[4-(tetradecyloxy)benzoyl]amino]-ethyl]pyridinium iodide] came in with an IC50 against PAF receptor (PAF challenge 1.00E-08 M) of 14000 nM. As for `CCCCCCCCCCCCCCOc1ccc(C(=O)N(Cc2ccc[n+](C)c2)C(C)=O)cc1C(C)(C)C` [3-[[Acetyl[3-(1,1-dimethylethyl)-4-(tetradecyloxy)-benzoyl]amino]methyl]-1-methylpyridinium iodide], it took 20000 nM to reach half-maximal inhibition on PAF receptor (PAF challenge 5.00E-08 M) (IC50).
